# Assay results published in the supplement of paper PMC10307832.
# Tests used:
# Test in all cases: relative viability (nuclei count vs DMSO), 5 days (fraction); higher = more cells survive
# VX-11e + Pemetrexed = compound: CC1=CN=C(N=C1C2=CNC(=C2)C(=O)N[C@H](CO)C3=CC(=CC=C3)Cl)NC4=C(C=C(C=C4)F)Cl [VX-11e] + Nc1nc2[nH]cc(CCc3ccc(C(=O)N[C@@H](CCC(=O)O)C(=O)O)cc3)c2c(=O)[nH]1 [Pemetrexed] (partner 0.2 µM)
# Outline: (§1)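 Lung cancer cell lines in 1536-well plates got either a single drug or a fixed anchor-drug dose together with five library-drug doses (not always all listed) in √10 steps, by pin tool, on the day after seeding. Nuclei were counted after 5 days, and relative viability is the treated-to-vehicle ratio of nuclei counts. Values are medians of duplicate plates.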
# VX-11e + AZD7762 = compound: CC1=CN=C(N=C1C2=CNC(=C2)C(=O)N[C@H](CO)C3=CC(=CC=C3)Cl)NC4=C(C=C(C=C4)F)Cl [VX-11e] + NC(=O)Nc1cc(-c2cccc(F)c2)sc1C(=O)N[C@H]1CCCNC1 [AZD7762] (partner 0.2 µM)
# Outline: as §1
# VX-11e + OSI-027 = compound: CC1=CN=C(N=C1C2=CNC(=C2)C(=O)N[C@H](CO)C3=CC(=CC=C3)Cl)NC4=C(C=C(C=C4)F)Cl [VX-11e] + COc1cccc2cc(-c3nc([C@H]4CC[C@H](C(=O)O)CC4)n4ncnc(N)c34)[nH]c12 [OSI-027] (partner 0.5 µM)
# Outline: as §1
# VX-11e + Foretinib = compound: CC1=CN=C(N=C1C2=CNC(=C2)C(=O)N[C@H](CO)C3=CC(=CC=C3)Cl)NC4=C(C=C(C=C4)F)Cl [VX-11e] + COc1cc2c(Oc3ccc(NC(=O)C4(C(=O)Nc5ccc(F)cc5)CC4)cc3F)ccnc2cc1OCCCN1CCOCC1 [Foretinib] (partner 0.25 µM)
# Outline: as §1
Cell Line,relative viability (VX-11e + Pemetrexed; first compound 0.04 µM),relative viability (VX-11e + Pemetrexed; first compound 0.1265 µM),relative viability (VX-11e + Pemetrexed; first compound 0.4 µM),relative viability (VX-11e + Pemetrexed; first compound 1.265 µM),relative viability (VX-11e + Pemetrexed; first compound 4 µM),relative viability (VX-11e + AZD7762; first compound 0.04 µM),relative viability (VX-11e + AZD7762; first compound 0.1265 µM),relative viability (VX-11e + AZD7762; first compound 0.4 µM),relative viability (VX-11e + AZD7762; first compound 1.265 µM),relative viability (VX-11e + AZD7762; first compound 4 µM),relative viability (VX-11e + OSI-027; first compound 0.04 µM),relative viability (VX-11e + OSI-027; first compound 0.1265 µM),relative viability (VX-11e + OSI-027; first compound 0.4 µM),relative viability (VX-11e + OSI-027; first compound 1.265 µM),relative viability (VX-11e + OSI-027; first compound 4 µM),relative viability (VX-11e + Foretinib; first compound 0.04 µM),relative viability (VX-11e + Foretinib; first compound 0.1265 µM),relative viability (VX-11e + Foretinib; first compound 0.4 µM),relative viability (VX-11e + Foretinib; first compound 1.265 µM),relative viability (VX-11e + Foretinib; first compound 4 µM)
NCI-H2405,1.09,0.957,0.678,0.989,0.501,0.835,0.729,0.625,0.671,0.412,0.587,0.599,0.375,0.768,0.37,1.04,1.01,1.05,1.08,0.455
PC-3 [JPC-3],1.08,1.09,1.12,0.976,0.846,0.697,0.653,0.685,0.701,0.711,0.705,0.714,0.685,0.866,0.544,1.06,0.972,1.05,1.08,0.769
CAL-12T,1.28,1.36,1.19,1.02,0.438,0.639,0.641,0.575,0.533,0.544,0.402,0.523,0.424,0.312,0.199,1.1,1.03,1.07,1.07,0.561
201T,0.347,0.344,0.317,0.249,0.31,0.592,0.586,0.562,0.626,0.74,0.728,0.678,0.823,0.603,0.645,1.12,0.959,,,1.03
LK-2,0.171,0.269,0.145,0.183,0.16,0.299,0.388,0.326,0.316,0.294,0.163,0.187,0.146,0.153,0.17,1.1,1.3,1.18,0.643,0.817
NCI-H1651,0.469,0.608,0.553,0.479,0.484,0.331,0.399,0.464,0.47,0.377,0.56,0.62,0.523,0.548,0.591,0.89,0.724,0.781,0.745,0.667
LU99A,0.184,0.138,0.201,0.182,0.188,0.244,0.37,0.142,0.18,0.195,0.257,0.324,0.249,0.286,0.256,0.806,0.729,0.894,0.805,0.362
LC-2-ad,0.277,0.247,0.285,0.239,0.243,0.913,0.844,0.798,0.458,0.468,0.73,0.534,0.363,0.584,0.466,0.883,0.822,0.983,0.747,0.673
NCI-H1975,0.307,0.276,0.295,0.27,0.258,0.657,0.721,0.562,0.57,0.378,0.695,0.499,0.291,0.415,0.162,1.02,0.949,1.01,1.08,0.46
NCI-H460,0.0706,0.0577,0.0649,0.0564,0.0528,0.561,0.54,,0.646,0.378,0.589,0.483,0.181,0.0819,0.0249,0.872,0.984,0.896,0.872,0.189
NCI-H1666,0.851,0.901,,0.756,0.6,0.803,0.832,0.715,0.732,0.699,0.932,0.777,0.75,0.611,0.524,0.957,0.853,0.87,0.692,0.546
EKVX,0.314,0.444,0.33,0.383,0.225,0.634,0.74,0.764,0.723,0.448,0.692,0.661,0.703,0.667,0.223,0.765,0.927,0.812,0.675,0.466
NCI-H1355,0.904,0.99,0.99,1.01,0.526,0.757,0.695,0.45,0.615,0.368,0.302,0.311,0.197,0.256,0.224,0.93,0.94,0.933,0.883,0.543
NCI-H2126,0.554,0.621,0.399,0.567,0.517,0.844,0.972,0.795,1.01,0.861,0.533,0.816,0.315,0.448,0.541,1.21,1.22,1.01,1.1,0.903
NCI-H596,0.457,0.506,0.53,0.449,0.464,1.03,0.895,1.01,0.748,0.778,0.518,0.691,0.525,0.349,0.407,0.854,0.952,0.775,0.79,0.506
PC-14,0.132,0.108,0.148,0.134,0.112,0.341,0.339,0.274,0.278,0.256,0.739,0.723,0.4,0.635,0.166,1.08,1.05,0.981,1.07,0.708
NCI-H1793,,0.715,,0.591,0.259,,0.361,,0.516,0.191,0.247,0.194,,0.251,0.134,0.589,0.603,,0.748,0.411

Cell Line,relative viability (VX-11e + Pemetrexed; first compound 0.04 µM),relative viability (VX-11e + Pemetrexed; first compound 0.1265 µM),relative viability (VX-11e + Pemetrexed; first compound 0.4 µM),relative viability (VX-11e + Pemetrexed; first compound 1.265 µM),relative viability (VX-11e + Pemetrexed; first compound 4 µM),relative viability (VX-11e + AZD7762; first compound 0.04 µM),relative viability (VX-11e + AZD7762; first compound 0.1265 µM),relative viability (VX-11e + AZD7762; first compound 0.4 µM),relative viability (VX-11e + AZD7762; first compound 1.265 µM),relative viability (VX-11e + AZD7762; first compound 4 µM),relative viability (VX-11e + OSI-027; first compound 0.04 µM),relative viability (VX-11e + OSI-027; first compound 0.1265 µM),relative viability (VX-11e + OSI-027; first compound 0.4 µM),relative viability (VX-11e + OSI-027; first compound 1.265 µM),relative viability (VX-11e + OSI-027; first compound 4 µM),relative viability (VX-11e + Foretinib; first compound 0.04 µM),relative viability (VX-11e + Foretinib; first compound 0.1265 µM),relative viability (VX-11e + Foretinib; first compound 0.4 µM),relative viability (VX-11e + Foretinib; first compound 1.265 µM),relative viability (VX-11e + Foretinib; first compound 4 µM)
NCI-H1915,0.484,0.509,0.477,0.381,0.388,0.719,0.719,0.596,0.791,0.554,0.573,0.439,0.254,0.338,0.213,1.12,1.08,1.16,1.13,0.791
ChaGo-K-1,0.268,0.261,0.248,0.25,0.234,0.889,0.801,0.796,0.896,0.767,0.546,0.533,0.395,0.527,0.439,0.878,0.855,0.941,0.923,0.928
NCI-H1437,0.331,0.274,0.296,0.257,0.219,1.11,1.09,0.867,0.972,0.741,0.795,0.725,0.878,0.444,0.373,1.27,1.25,1.32,1.36,0.677
NCI-H650,0.997,0.903,0.984,1.05,1.11,1.08,0.935,0.964,0.994,0.553,0.531,0.616,0.75,0.559,0.518,1.09,1.04,1.1,0.993,1.1
NCI-H322M,0.623,0.658,0.641,0.497,0.594,0.469,0.726,0.506,0.514,0.448,0.535,0.401,0.319,0.417,0.364,0.924,0.748,0.981,0.763,0.659
LOU-NH91,0.448,0.373,,0.367,0.358,0.746,0.805,,0.8,0.725,0.622,0.67,0.497,0.611,0.541,0.92,0.896,0.577,0.94,0.782
EPLC-272H,0.334,0.39,0.408,0.305,0.253,0.147,0.21,,0.201,0.285,0.257,0.219,,0.199,0.165,0.622,0.559,,0.361,0.261
BEN,0.491,0.69,0.875,0.582,0.629,0.481,0.635,0.823,0.634,0.567,,0.274,0.302,0.285,0.242,,0.633,0.966,0.451,0.557
SW 900,0.49,0.452,,0.36,0.294,0.439,0.529,,0.265,0.411,0.276,0.448,0.12,0.304,0.246,0.851,0.943,0.969,0.794,0.519
NCI-H1734,0.428,0.398,0.445,0.306,0.315,0.525,0.532,0.307,0.334,0.296,0.566,0.459,0.472,0.348,0.227,0.941,0.852,0.81,0.706,0.344
NCI-H3122,0.202,0.205,0.162,0.171,0.152,1.13,1.13,0.353,0.933,0.577,0.892,0.898,,0.513,0.147,0.948,0.897,,0.851,0.487
H3255,0.478,0.565,0.523,0.513,0.47,0.745,0.834,0.859,0.923,0.825,0.52,0.601,0.559,0.637,0.407,0.734,0.963,0.87,0.918,0.948
LCLC-97TM1,0.183,0.14,0.243,,0.171,0.259,0.172,0.23,0.175,0.14,0.494,0.274,0.287,0.418,0.175,0.955,0.811,0.826,0.455,0.332
NCI-H441,0.27,0.253,,0.259,0.238,1.23,1.12,,1.17,1.05,0.519,0.502,,0.518,0.417,1.14,1.2,,1.05,0.937
HCC-366,0.246,0.178,,0.15,0.138,0.429,0.235,,0.21,0.16,0.811,0.795,,0.544,0.136,1.01,0.876,,0.851,0.701
NCI-H358,0.188,0.171,0.17,0.171,0.136,0.594,0.499,,0.445,0.228,0.734,0.642,0.25,0.382,0.132,0.354,0.541,0.347,0.434,0.147
